Assay results taken from US20130244255A1, “ANTIBODIES DIRECTED TO GPNMB AND USES THEREOF” (priority 2006, published 2013).
pKd: −log10 of the molar value.

Tests used:
HEK293 cells = assay: Clonogenic assay, HEK293 cells transfected with GPNMB or empty vector; type: cell-based, human; settings: 96 hours treatment
Method: Cells were plated in 96-well plates and allowed to recover overnight. […] The cells were then transferred into 6-well plates and allowed to form colonies. Colonies were stained with Giemsa stain (Sigma) and counted. The surviving cell fractions were calculated based upon the ratio of the treated sample and the untreated control. The results were expressed as a percentage of control using GraphPad Prism Version 4 software.
Immunoblot (FIG. 9A) and FACS (FIG. 9B) analyses confirmed that GPNMB was expressed in GPNMB/plasmid transfected cells.

[1] = test system: SK-MEL-2 melanoma xenografts; assay: Dosing interval (schedule dependency) study, SK-MEL-2 xenograft; type: in vivo, athymic mice
Method: Nota bene: Please note that, although all 5 sets of groups in this experiment (e.g., groups 5, 6, and 7 represent one set and received 32, 8, and 2 mg/kg cumulative dose, respectively) received the same cumulative doses, the first set receiving the “bolus dose” is different from the other 4 sets. The Cmax for each group in the “bolus” set was likely four-fold higher that the Cmax for the other 4 sets (see section on pharmacokinetics for dose-linearity after i.v. administration), since 4 sets of groups received 4 treatments, whereas the first set received only one “bolus” treatment (see column 7, Table 49 below).
The aggregate responses for each set of groups, where a set is defined as 3 groups of graduated dosage levels but one dosage interval (groups 5, 6, and 7 represent 1 set, all of which were treated with a dosing interval of 1 day) are shown in FIG. 7. […] However, this effect was not significant (P<0.2904).
The original design of this study was expanded to include an examination of the effects of various dosage levels. For each set, one group of animals received a cumulative dose of 8 mg/kg, which, from previous studies employing a dosing interval of 4 days, provided consistent therapeutic effects leading to long-term tumor-free animals. In addition, cumulative doses of 2 mg/kg and 32 mg/kg were employed.

MEWO = assay: Clonogenic assay with 1.15.1-AE; type: cell-based, human
Method: (§1) Melanoma cell lines were plated onto flat bottom 96-well tissue culture plates (Becton Dickinson, Franklin Lakes, N.J., USA). On day 2 or when cells reach ˜25% confluency, various concentrations of unconjugated and Auristatin E-conjugated 1.15.1 were added to cells. MAb 2.6.2-AE was also used as a conjugated isotype control in this study. On day 5, the cells were trypsinized, transferred to 6-well tissue culture plates and incubated at 37° C. Plates were examined daily. On days 8-10, all plates were Giemsa stained and colonies on the plates were counted.

HEMNLP = assay: Clonogenic assay with 1.15.1-AE; type: cell-based, human
Method: as §1

M14 = assay: Clonogenic assay with 1.15.1-AE; type: cell-based, human
Method: as §1

HT144 = assay: Clonogenic assay with 1.15.1-AE; type: cell-based, human
Method: as §1

LOXIMVI = assay: Clonogenic assay with 1.15.1-AE; type: cell-based, human
Method: as §1

SK-Mel-2 cells = assay: ADCC assay with human PBMC (DELFIA EuTDA cytotoxicity); type: cell-based; settings: 30 to 100 fold PBMC; 2, 5, 10 μg/200 μl mAb
Method: Human PBMC were isolated from whole blood using a Ficoll-Plaque. Briefly, in a 50 mL tube, 15 mL of PBS was added to 20 mL of whole blood which was underlayed with 10 mL Ficoll-Plaque and the tube was centrifuged at 2000 RPM. Mononuclear cells were collected from the interface and washed 3 times with PBS. The ADCC assay was carried out in a 96 well plate using a fluorescence assay for cytolysis from Perkin-Elmer (DELFIAEuTDA Cytotoxic assay). The procedure is based on loading target cells with a fluorescence enhancing ligand (BATDA, bis (acetoxymethyl) terpyridine—dicarboxylate). The hydrophic ligand penetrates the membrane quickly. Within the cell the esterbonds are hydrolyzed to form a hydrophilic ligand (TDA, terpyridine—dicarboxylic acid) which can no longer pass through the membrane. After cytolysis the ligand is released and introduced to the Europium solution. The europium and the ligand form a highly fluorescent and stable chelate (EuTDA). Fluorescence intensity are recorded using excitation and emission wavelengths as λex=340 nm and λem=613 nm, respectively.

GPNMB = biological target: T1, GPNMB (Homo sapiens, UniProt Q14956); assay: BiaCore 2000 analysis of hybridoma supernatants binding to GPNMB
T1 construct: we cloned the human CG56972 extracellular domain (ECD; aa 23-480); made in house; host or cells: HEK 293 cells
T1 sequence (Q14956 23-492): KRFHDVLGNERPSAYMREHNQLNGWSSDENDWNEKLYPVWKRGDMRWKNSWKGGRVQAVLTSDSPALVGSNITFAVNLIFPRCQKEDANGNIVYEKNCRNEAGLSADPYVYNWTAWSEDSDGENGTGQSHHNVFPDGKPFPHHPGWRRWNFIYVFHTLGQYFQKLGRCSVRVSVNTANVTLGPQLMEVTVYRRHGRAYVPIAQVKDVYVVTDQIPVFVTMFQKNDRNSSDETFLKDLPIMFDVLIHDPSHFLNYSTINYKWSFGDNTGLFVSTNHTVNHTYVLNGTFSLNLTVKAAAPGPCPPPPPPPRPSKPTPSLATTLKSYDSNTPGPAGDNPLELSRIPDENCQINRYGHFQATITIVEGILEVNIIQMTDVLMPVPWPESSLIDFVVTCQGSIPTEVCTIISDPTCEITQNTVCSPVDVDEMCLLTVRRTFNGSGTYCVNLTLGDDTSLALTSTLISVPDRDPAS
Method: Certain Hybridoma cell supernatants (29) were analyzed for binding to GPNMB by BiaCore® 2000 biosensor equipped with a research-grade CM5 sensor chip. A 1:25 dilution of cell supernatant was passed over a protein A surface for 5 min followed by washing the surface for 10 mins. Subsequently, GPNMB was injected for 90 sec. over the surface at a concentration of 880 nM followed by dissociation. Double-referenced binding data were obtained by subtracting the signal from a control flow cell and subtracting the baseline drift of a buffer injected just prior to the antigen injection. GPNMB binding data for each mAb was normalized for the amount of mAb captured on each surface. Normalized, drift corrected responses were also measured. The sensorgrams were fit to a simple 1:1 kinetic model.

[2] = mAb captured on protein A, GPNMB at 880 nM, 1:1 kinetic model

CR011-vcMMAE: CR011 conjugated to monomethyl auristatin E through a protease cleavable valine-citrulline linker; approx. 4 drugs per antibody
sensitivity of GPNMB-expressing HEK293 cells vs control cells to growth-inhibition (HEK293 cells): more sensitive
complete regressors ([1]; 2 mg/kg cumulative dose): 13%
complete regressions ([1]; 8 mg/kg cumulative dose, all dosing intervals (28/30)): 93%
complete regressions ([1]; cumulative dose of 32 mg/kg, all dosing intervals (30 test animals)): 100%
schedule dependency of anti-tumor effects ([1]; dosing intervals 0, 1, 4, 8, 16 days): not schedule-dependent
Clonogenic Assay with 1.15.1-AE IC50 in ng/mL (MEWO): Inconclusive
Clonogenic Assay with 1.15.1-AE IC50 in ng/mL (HEMNLP): Inconclusive
Clonogenic Assay with 1.15.1-AE IC50 in ng/mL (M14): Inconclusive
Clonogenic Assay with 1.15.1-AE IC50 in ng/mL (HT144): Inconclusive
Clonogenic Assay with 1.15.1-AE IC50 in ng/mL (LOXIMVI): No effect

CR011: fully human monoclonal antibody that specifically binds to GPNMB; VH SEQ ID NO: 20, VL SEQ ID NO: 29
cytolysis of SK-MEL-2 cells (ADCC) (SK-Mel-2 cells): did not show any cytolysis
binding to GPNMB (in words) (GPNMB; BiaCore, 1:25 dilution of cell supernatant): strong binding
pKd (GPNMB; [2]): 7.28
ka (GPNMB; [2]): 16524 M⁻¹ s⁻¹
kd (GPNMB; [2]): 0.000855 s⁻¹
